Results as given in US12257251B2, “Use of FAK inhibitor in preparation of drug for treating tumors having NRAS mutation” (INXMED (NANJING) CO., LTD., priority 2019, dated 2025).

Test system: HMVII (NRAS^Q61K) melanoma cell line
Assay: HMVII CDX model (melanoma with an NRAS mutation): tumor growth
Assay type: in vivo, mouse
Conditions: for Tumor growth compared to the control group (in words): HMVII model, daily treatment; for Mean TGI: daily, based on relative tumor volume on day 14
Procedure: 1.1. Test compound: BI853520, which was synthesized according to the method in the patent WO2010058032. BI853520 was formulated with 0.5% hydroxyethyl cellulose (Ashland).
1.2. Cells: The melanoma cell line GAK was purchased from JCRB Cell Bank, and HMVII cells were purchased from Sigma. GAK originated in the inguinal lymph nodes of patients with vaginal melanoma, whereas HMVII originated in primary vaginal melanoma. GAK and HMVII cells were cultured in tissue culture flasks containing 5% CO2 at 37° C. The media were Ham's F12 containing 10% heat-inactivated FBS and Ham's F10 containing 15% FBS, respectively. All media were supplemented with 100 U/mL penicillin, […] streptomycin, and 2 mM GlutaMAX. All cell culture reagents were purchased from GIBCO.
Both HMVII and GAK cell lines carried an NRAS mutation at the Q61 position. HMVII (NRAS^Q61K) and GAK (NRAS^Q61L)
1.3. Mice: 4-week-old female balb/c nude mice (purchased from Beijing Vital River Laboratory Animal Technology Co., Ltd.). After arriving in the animal room, the mice were allowed to acclimate to the new environment for at least 2 weeks before being used for assay. The animals were housed under standard conditions (temperature: 21.5±1.5° C., humidity: 55±10%). A Standard diet and autoclaved tap water were provided ad libitum. All animal care and experimental procedures were performed in accordance with the animal care ethics guidelines approved by the Medical Ethics Committee of Beijing Cancer Hospital and Research Institute.
To establish subcutaneous tumors, HMVII and GAK cells were harvested by trypsinization, centrifuged, washed and resuspended in ice-cold PBS+5% FCS. Then 100 l of the cell suspension containing 5×10^6 cells was injected subcutaneously into the right flank of nude mice (1 site per mouse). When tumors were well established and reached a median volume of approximately 400-600 mm^3, mice were randomly assigned to the treatment group and the control group.
1.5. Administration: BI 853520 was formulated in 0.5% hydroxyethyl cellulose, which was intragastrically administered through gavage needle every day, and the dosage was 10 mL/Kg body weight.
Tumor diameters were measured twice a week with calipers. The volume [mm^3] of each tumor was calculated according to the equation “tumor volume=length×diameter^2×π/6”. Animals were sacrificed at the end of the study (approximately two weeks after the start of treatment). During the study, animals with necrotic tumors or tumors exceeding 2000 mm^3 in size were sacrificed for ethical reasons.
Tumor volumes were statistically assessed at the end of the assay. For tumor volume, relative values were used.
The number of observations, and the median, minimum and maximum tumor volumes were calculated. For a quick overview of possible treatment effects, the following metrics were calculated: • Relative tumor volume: (T/C)
[formula] • TGI from day 1 to day d: TGI=100×[(Cd−C1)−(Td−T1)]/(Cd−C1) • wherein, C1, T1=mean relative tumor volume in control and treatment groups at the start of the assay (day 1); • Cd, Td=mean relative tumor volume in control and treatment groups at the end of the assay (day d).
Statistical evaluation was performed using the Student's t-test function in Microsoft Excel, using two-tailed distribution and two-sample equal variance type.
The significance level was fixed at α=5%. […]

COc1cc(C(=O)NC2CCN(C)CC2)c(F)cc1Nc1ncc(C(F)(F)F)c(Oc2cccc3c2C(=O)N(C)C3)n1 [BI853520]
Tumor growth compared to the control group (in words): inhibit tumor growth | Tumor growth compared to the control group (in words) (listed as BI 853520): delayed tumor growth | Mean tumor volume (HMVII, 50 mg/kg (1st week), 25 mg/kg (2nd week), daily gavage, day 14): 671 ± 606 mm^3 | Mean TGI (HMVII, 50 mg/kg (1st week), 25 mg/kg (2nd week)): 60% | Mean TGI (HMVII, 50 mg/kg (1st week), 25 mg/kg (2nd week), listed as BI 853520): 60%
